Measured values published in patent US11020481B2 (priority 2008, dated 2021).

How the values were obtained:
IL-6 [1] = experiment: IL-6 production in TNFα-induced NL20 cells (ELISA); assay type: cell-based, human
Procedure: (§1) Am J Physiol Lung Cell Mol Physiol 2007; 292:[…]-352; and Donnarumma G, et al. Anti-inflammatory effects of moxifloxacin and human beta-defensin 2 association in human lung epithelial cell line (A549) stimulated with lipopolysaccharide. Peptides 2007; 28:2286-2292, incorporated by reference in their entireties). […] The effect of antibiotics on cytokine levels was assessed by ELISA assay. […] The day after seeding, cells received normal growth medium without serum for an additional 24 h. […] IL-6 and IL-8 production in NL20 monolayers was induced by treatment with 10 ng/ml of TNFα. […] After 48 h, cell medium was collected, clarified and the amount of IL-6 and IL-8 released into the medium was quantified using QuantiGlo chemiluminescent ELISA kits (R&D Systems, Minneapolis, Minn.). To test the effect of antibiotics on IL-6 and IL-8 secretion, antibiotics were added to culture media along with LPS or TNF-α and processed as described above.

[2] = system: IL-8, IL-6, ERK1/2, MK, and NFKB; settings: human lung epithelia cells; antibiotic concentrations less than 50 μg/ml; cited from earlier work
HBE135 cells = experiment: Cytotoxicity on HBE135 cells, Alamar Blue assay; assay type: cell-based, human; settings: for changes in cell viability in cytotoxicity assays: Example 5, LPS-induced HBE135 cells, 10-300 μg/ml, data not shown
Procedure: (§2) After 48 hour incubation with the antibiotic, cells were incubated in fresh growth media containing 5% Alamar Blue dye and fluorescence was recorded at 0 h and 4 h to assess antibiotic cytotoxicity.

IL-1β = IL-1β production in LPS-stimulated THP-1 cells (ELISA); assay type: cell-based, human; settings: 24 h
Procedure: The human monocyte cell line, THP-1 is an established in vitro model of human monocytic cells and is capable to secrete a greater variety of cytokines compared to NL20 and HBE135 cells. THP-1 cells were cultured in RPMI-1640 medium with 10% FBS, 0.05 mM 2-mecraptoethanol. THP-1 cells were seeded on 24-well tissue culture plates at 1×10^6 cells/ml in growth media without serum. The following day, 100 ng/ml LPS from P. aeruginosa and antibiotics were added and cells incubated for 24 hours before media collection to assess cytokine production. Quantification of IL-6, IL-8, IL-1β and TNFα production was performed as described above for NL20 cells.

IL-6 [3] = experiment: IL-6 levels in BAL of LPS-injected mice after aerosol treatment; assay type: in vivo; settings: LPS i.p., aerosol 60 mg/kg, BAL at 6 hours
Procedure: (§3) Mice (n=4) were injected with 50 μg LPS by an intraperitoneal route. […] Mice were sacrificed 6 hours after aerosolized treatment, and bronchoalveolar (BAL) fluid was collected by lavage with 1 ml saline. IL-6 and MIP-2 (murine homolog of human IL-8) levels were determined by ELISA.

IL-8 mRNA = IL-8 mRNA expression in TNFα-induced NL20 cells (real-time PCR); assay type: cell-based, human; settings: NL20 monolayers, 10 ng/ml TNFα, 24 h; 100 μg/ml and 300 μg/ml
Procedure: IL-8 mRNA expression in NL20 monolayers was induced by treatment with 10 ng/ml TNFα. Levofloxacin was added simultaneously with TNFα. After 24 h incubation, the cell monolayer was washed with PBS, total cellular RNA was prepared and reverse transcription was performed using a human IL-8 specific primer and the “Cells-to-cDNA” kit from Ambion (Austin, Tex.). cDNA was subjected to real-time PCR analysis using PowerSYBR Green PCR master mix and a GeneAmp 5700 Instrument (Applied Biosystems; Warrington, UK). All data were normalized to the housekeeping gene β-actin. […] This increase correlates with the increased levels of IL-8 protein induced by TNFα.

IL-8 [4] = experiment: IL-8 production in LPS-induced HBE135 cells (ELISA); assay type: cell-based, human
Procedure: as §1

IL-6 [5] = experiment: IL-6 production in LPS-induced HBE135 cells (ELISA); assay type: cell-based, human; settings: for decrease in IL-6 levels: Example 5, 5 μg/ml LPS
Procedure: as §1

IL-8 [6] = experiment: IL-8 production in TNFα-induced NL20 cells (ELISA); assay type: cell-based, human; settings: for levels of IL-8 decreased: p<0.005
Procedure: as §1

NL20 cells = system: NL20 cells
Procedure: as §2

MIP-2 = MIP-2 levels in BAL of LPS-injected mice after aerosol treatment; assay type: in vivo; settings: 50 μg LPS i.p., aerosol 60 mg/kg 30 min after LPS, BAL 6 hours after treatment
Procedure: as §3

[7] = Example 3, NL20 cells induced with TNFα, 300 μg/ml
[8] = summary of Example 5, cultured human lung epithelial cell lines (line not given), 300 μg/ml, p<0.05
[9] = Example 5, NL20 cells, TNFα, 300 μg/ml
[10] = Example 5, NL20 cells, TNFα, 10 μg/ml to 100 μg/ml
[11] = summary of Example 5, cultured human lung epithelial cell lines (line not given)

SMILES: O=C(O)c1cn(C2CC2)c2cc(N3CCNCC3)c(F)cc2c1=O [ciprofloxacin]
- change in IL-6 levels (IL-6 [1]; Example 1, NL20 cells, 10 ng/ml TNFα, 48 h, 10 μg/ml and 30 μg/ml antibiotic): No significant change
- IL-6 levels (IL-6 [1]; Example 1, NL20 cells, TNFα, 30 μg/ml): increase

SMILES: Cc1c(F)c(N2CCNC(C)C2)cc2c1c(=O)c(C(=O)O)cn2C1CC1 (centres unmarked) [grepafloxacin]
- secretion of pro-inflammatory factor such as IL-8, IL-6, ERK1/2, MK, and NFKB [2]: can inhibit

SMILES: C[C@H]1COc2c(N3CCN(C)CC3)c(F)cc3c(=O)c(C(=O)O)cn1c23 [levofloxacin]
- changes in cell viability in cytotoxicity assays (HBE135 cells): No significant changes
- cytotoxicity compared to moxifloxacin and ciprofloxacin (HBE135 cells; HBE135 cells, 48 hour incubation, higher concentrations): less cytotoxic
- decrease in IL-1I3 levels (IL-1β; 100 μg/ml): 40%
- decrease in IL-1I3 levels (IL-1β; 300 μg/ml): 70%
- IL-6 levels lower than in the saline control (IL-6 [3]; p<0.05): more than 2 fold
- level of IL-8 mRNA expression (IL-8 mRNA): no significant effect
- reduction in IL-6 levels (IL-6 [1]; [7]): ~10 fold
- reduction in IL-6 levels (IL-6 [1]; Example 5, NL20 cells, 10 ng/ml TNFα, 100 μg/ml, p<0.005): 2 fold
- reduction in IL-6 levels (IL-6 [1]; Example 5, NL20 cells, 10 ng/ml TNFα, 300 μg/ml, p<0.005): 4 fold
- reduced levels of IL-6 (IL-6 [1]; [8]): 4 fold
- levels of IL-8 decreased (IL-8 [4]; Example 5, 100 μg/ml): 30%
- levels of IL-8 decreased (IL-8 [4]; Example 5, 300 μg/ml): 20%
- decrease in IL-6 levels (IL-6 [5]; 100 μg/ml): 45%
- decrease in IL-6 levels (IL-6 [5]; 300 μg/ml): 40%
- reduction in IL-8 levels (IL-8 [6]; [7]): ~5 fold
- levels of IL-8 decreased (IL-8 [6]; Example 5, NL20 cells, TNFα, 100 μg/ml): 50%
- levels of IL-8 decreased (IL-8 [6]; [9]): 60%
- reduced levels of IL-8 (IL-8 [6]; [8]): 2 fold
- cytotoxicity compared to moxifloxacin and ciprofloxacin (NL20 cells): less cytotoxic

SMILES: NC[C@H]1O[C@H](O[C@H]2[C@H](O)[C@@H](O[C@H]3O[C@H](CO)[C@@H](O)[C@H](N)[C@H]3O)[C@H](N)C[C@@H]2N)[C@H](N)C[C@@H]1O [tobramycin]
- changes in cell viability in cytotoxicity assays (HBE135 cells): No significant changes
- mean MIP-2 levels (MIP-2): 502 pg/mL
- IL-6 levels compared to the saline control (IL-6 [3]): increase
- production of IL-6 (IL-6 [1]; [10]): did not significantly affect
- IL-6 production (IL-6 [1]; [9]): increase
- increased IL-6 levels (IL-6 [1]; [11]): 50%
- levels of IL-6 (IL-6 [5]; Example 5, LPS, 10 μg/ml, 30 μg/ml, or 100 μg/ml): did not affect
- increased levels of IL-6 (IL-6 [5]; Example 5, LPS, 300 μg/ml): 30%
- production of IL-8 (IL-8 [6]; [10]): did not significantly affect
- effect on IL-8 (IL-8 [6]; [11]): no effect
